These results are taken from paper PMC11318101, “Fragment-Based Screen of SARS-CoV-2 Papain-like Protease (PL^pro)” (ACS Medicinal Chemistry Letters, 2024).

A word on the inhibition: it is the change of the read-out against control, counted positive when it falls. Read a low inhibition as little suppression.

This experiment has as its target SARS-CoV-2 PLPro (full-length, intact C111) (Severe acute respiratory syndrome coronavirus 2, UniProt P0DTD1, C1833S). Type of experiment: biochemical.
As to `Cn1ncc2c(Nc3ccccc3Cl)ncnc21` [Fragment 7], the “inhibition at 1 mM” value is reported as 30%.
As to `CC(C)c1cc(O)n2ncc(-c3ccccc3)c2n1` [Fragment 8], the “inhibition at 1 mM” value was found to be 62%.
Consider `Cc1cc(Nc2ccccc2C)n2ncnc2n1` [Fragment 9], for which the “inhibition at 1 mM” value was 5%.
`Cc1ccc(Nc2cc(C)nc3nncn23)c(C)c1` [Fragment 11]: the “inhibition at 1 mM” value is 2%.
